Consider one substance from US20130011333A1, “Methods and Compositions for Nanoparticle-Mediated Cancer Cell-Targeted Delivery” (Board of Regents, The University of Texas System, priority 2010, published 2013).

Assay [1] deals with MCF-10A cells. Kind of assay: FACS (flow cytometry) analysis after irradiation. The note with it: MCF-10A cells expressing p53/p73OD, 4Gy, 24 h. It counts as cell-based, human. The procedure:
(§1) A. Cells as in FIG. 6 were subject to Western analysis using the indicated antibodies. P53/p73OD expressing MDA-MB-231 or MCF-10A cells were either mock or irradiated with 4Gy. The cells were either harvested at 6 h post-IR for Western analysis (B) or at 24 h for FACS analysis (C). The results are mean±SE from three independent experiments.
(§2) To understand potential mechanisms underlying the differential sensitivity of cancer cells and non-transformed cells to p53/p73OD expression, p53 activity was examined further. […] The result is in line with the notion that cancer cells, but not normal cells, harbor strong intrinsic p53-activating signals. The low activity of p53/p73OD in MCF-10A cells led to the question of whether the chimera could be activated by exogenous stimuli such as radiation.
A general note: In flow cytometry, cells or beads pass a laser one at a time.

The subject of assay [2] is MDA-MB-231 cells. Description: FACS (flow cytometry) analysis after irradiation. It counts as cell-based, human. Particulars: MDA-MB-231 cells expressing p53/p73OD, 4Gy, 24 h. The procedure:
as §1, §2

The target in assay [3] is p53 (Homo sapiens, UniProt P04637). Particulars: reference [28]; cited from earlier work.
The target of assay [4] is T1, p73 (Homo sapiens, UniProt O15350).
T1 sequence (O15350 1-499 isoform O15350-2): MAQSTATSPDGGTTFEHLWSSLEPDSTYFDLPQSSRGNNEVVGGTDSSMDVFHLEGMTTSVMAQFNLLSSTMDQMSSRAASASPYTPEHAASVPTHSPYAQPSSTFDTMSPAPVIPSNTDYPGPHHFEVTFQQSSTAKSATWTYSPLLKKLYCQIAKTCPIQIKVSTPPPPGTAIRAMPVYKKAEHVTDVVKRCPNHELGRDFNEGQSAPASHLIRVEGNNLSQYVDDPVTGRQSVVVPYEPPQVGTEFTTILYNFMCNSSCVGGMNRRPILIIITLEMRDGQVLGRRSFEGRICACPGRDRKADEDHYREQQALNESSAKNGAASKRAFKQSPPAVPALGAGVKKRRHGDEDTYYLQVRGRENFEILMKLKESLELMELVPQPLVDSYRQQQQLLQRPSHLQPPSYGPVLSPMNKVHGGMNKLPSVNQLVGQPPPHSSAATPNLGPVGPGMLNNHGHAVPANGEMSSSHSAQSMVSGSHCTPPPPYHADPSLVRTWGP
The note with it: reference [28]; cited from earlier work.

The subject of assay [5] is MCF-10A cells. Kind of assay: Western analysis of p53 pathway. In kind it is cell-based, human. Particulars: 4Gy, 6 h post-IR. The procedure: as §1, §2
Assay [6] concerns MCF-10A cells. Description: Colony formation assay. In kind it is cell-based, human. Particulars: expression level that markedly inhibits MDA-MB-231 growth. As for the experimental part:
FIG. 6. MCF-10A cells are less sensitive to a moderate level of p53/p73OD expression. MCF-10A cells with MDA-MB-231 cells as controls were transfected with the indicated vectors (0.5 μg) and subjected to colony formation assay as in FIG. 5. Western blot was performed in parallel to determine the level of p53/p73OD expression.
As a result, the response of normal cells to a moderate level of p53/p73OD expression is likely to differ from that of cancer cells. This was tested by comparing MDA-MB-231 cells and MCF-10A cells (a non-transformed human breast epithelial cell line), using a similar colony formation assay.

Assay [7] deals with MDA-MB-231 cells stably expressing Pg13-GFP. Kind of assay: Pg13-GFP reporter of p53 activation. It counts as cell-based, human. Particulars: delivered with GLU-PEG-PEI, 0.2 μg DNA/60-mm dish, 24 h.
Procedure: The cells were fixed 24 h later using 2% formalin and stained with DAPI dye. The top panels show the GFP expression. The bottom panels show cell nuclei detected by DAPI staining.
To facilitate the detection of p53 activation in situ, a Pg13-GFP system was developed in which 13 repeats of a canonical p53 responsive element were cloned to drive the expression of GFP protein. An absolute dependency of the GFP expression on p53 was verified with p53-null H1299 cells. […] The cells were fixed 24 h later.
The subject of assay [8] is MDA-MB-231 cells. Kind of assay: Colony formation assay. In kind it is cell-based, human. The note with it: MDA-MB-231 cells expressing high level of mutant p53, transfected vector.
In assay [9] the test system is MDA-MB-231 cells. Kind of assay: Western analysis of p53 pathway. In kind it is cell-based, human. The procedure: After selection with puromycin, the cells were subjected to colony formation assay. The data are means±SE from three separate experiments (A). Western analysis was performed with cells that were harvested at 48 h pos-selection and probed using the indicated antibodies (B).
as §1
The present invention utilizes a p53/p73 chimera to circumvent this OD-mediated inactivation by mutant p53. A series of p53/p73 chimeric proteins were generated by swapping corresponding domains of p53 and p73 [28]. […] A crystal structure study has confirmed this observation. […] This is of particular significance considering the dominant-negative and gain-of-function activities of mutant p53 that are primarily responsible for the oncogenic function.
as §2

Sequence of p53 (P04637 whole entry): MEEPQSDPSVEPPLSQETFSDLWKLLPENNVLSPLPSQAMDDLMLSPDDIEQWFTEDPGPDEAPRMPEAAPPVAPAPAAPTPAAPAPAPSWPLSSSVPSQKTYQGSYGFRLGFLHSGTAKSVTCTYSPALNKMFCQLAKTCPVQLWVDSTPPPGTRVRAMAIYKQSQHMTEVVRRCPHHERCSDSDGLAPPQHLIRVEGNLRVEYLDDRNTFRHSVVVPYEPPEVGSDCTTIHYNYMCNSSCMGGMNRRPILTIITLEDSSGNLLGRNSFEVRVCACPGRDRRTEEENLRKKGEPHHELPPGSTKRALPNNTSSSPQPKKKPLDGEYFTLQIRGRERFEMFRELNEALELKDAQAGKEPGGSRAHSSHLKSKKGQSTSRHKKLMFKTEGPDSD

As for “p53/p73OD: human p53 protein in which amino acids 318 to 364 are replaced with amino acids 346-390 of p73 (the oligomerization domain)”, the “G1 cell cycle arrest after IR” value in [1] was “significant G1 cell cycle arrest”; in [2], “little G1 cell cycle arrest”. Further, the “sub-G1, or apoptotic population after IR” value in assay [2] was “marked increase”. Besides, the “binding to p53” value in assay [3] was “does not bind”. For the same substance, in [4], the “association with p73” value is listed as “associates”. In addition, the “phosphorylation after IR” value in assay [5] is “markedly induced”; in assay [9] (4Gy, 6 h post-IR), “markedly induced”. The “cell growth (colony formation)” value is given as “did not significantly impact the growth” in [6] and “effectively inhibited cell growth” in assay [8]. The “p53 transcription activity (GFP expression)” value in assay [7] is recorded as “increase of p53 transcription activity”. The “PUMA, MDM2 and p21 expression” value in assay [9] was “robust induction”. For the same substance, the “mutant p53 protein level” value in assay [9] (Western, 48 h post-selection) is recorded as “significant decrease”. The “phosphorylation (anti-Sp15p53 Western)” value in assay [9] (no irradiation) is “phosphorylated”.
